US20240307350A1, “5-METHOXY-N,N-DIMETHYLTRYPTAMINE (5-MEO-DMT) FOR TREATING DEPRESSION” (GH RESEARCH IRELAND LIMITED, priority 2019, published 2024)

Tests used:
[1] = test system: patients with personality trait disturbance or anxiety; details: LSD as an aid to psychotherapy; cited from earlier work
[2] = test system: patients with alcohol dependence; details: therapy with LSD; cited from earlier work
[3] = Clinical trial in healthy volunteers: 5-MeO-DMT and bufotenine plasma levels; assay type: in vivo, human; details: all other samples (1 hour and 3 hours) after inhaled 5-MeO-DMT
Experimental: A clinical trial was performed in which 5-MeO-DMT free base (purity not less than 99%) at different dose levels was administered via inhalation (as described in Example 1) in a single day to healthy volunteers who had prior experiences with the use of synthetic or naturally-occurring psychedelics. The trial was reviewed and approved by the relevant national competent authority and local medical ethics committee. The trial consisted of two parts: Part A, where single doses of 5-MeO-DMT dosage amounts of 2 mg, 6 mg, 12 mg and 18 mg were administered; and Part B, where an initial 5-MeO-DMT dosage amount of 6 mg was administered, and then, unless the participant had already experienced a peak psychedelic experience based on the PPEQ or the supervising physician had decided that further dose increases were inappropriate based on observed side effects, further subsequent dosage amounts of 12 mg and 18 mg were administered with about 3 hours in between each administration. Participants in Part A only received one dose and were not allowed to receive higher doses in later parts of Part A and were not allowed to participate in Part B. Participants were closely monitored for 3.5 hours after the last dose, with additional follow-up visits 1 day and 7 days after dosing. Various safety related measures (e.g., adverse event reporting, safety laboratory analyses, vital signs, ECG, CADSS, PVT, DSST, Prospective Memory Task (PMT)) as well as measures of the intensity of the psychedelic effects (MEQ30, ASC, PPEQ, subjective description of the psychedelic experience) were recorded. Pharmacokinetic analysis of 5-MeO-DMT and bufotenine plasma levels was performed at 1 hour and 3 hours after drug administration in Part A, and at 3 hours after drug administration in Part B.

5-HT2A receptor = 5-HT2A receptor (Homo sapiens, UniProt P28223); details: compared with 5-MeO-DMT; cited from earlier work
5-HT2A receptor, sequence (P28223 whole entry): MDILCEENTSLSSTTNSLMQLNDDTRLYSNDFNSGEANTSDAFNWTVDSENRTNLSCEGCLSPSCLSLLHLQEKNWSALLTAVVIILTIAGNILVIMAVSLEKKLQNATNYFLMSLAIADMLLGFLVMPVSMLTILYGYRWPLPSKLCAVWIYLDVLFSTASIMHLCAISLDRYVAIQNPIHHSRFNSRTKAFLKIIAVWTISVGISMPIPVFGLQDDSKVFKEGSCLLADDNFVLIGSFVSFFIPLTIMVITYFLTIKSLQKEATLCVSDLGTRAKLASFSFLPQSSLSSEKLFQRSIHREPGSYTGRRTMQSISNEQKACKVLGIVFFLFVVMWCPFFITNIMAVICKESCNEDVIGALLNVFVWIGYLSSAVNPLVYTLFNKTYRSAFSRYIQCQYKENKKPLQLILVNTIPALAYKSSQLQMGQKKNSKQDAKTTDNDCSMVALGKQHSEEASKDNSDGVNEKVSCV

CCN(CC)C(=O)[C@@H]1C=C2c3cccc4[nH]cc(c34)C[C@H]2N(C)C1 [LSD, lysergic acid diethylamide]
patients with an outcome of "much improved" or "improved" [1]: over 90%
patients changed (stop drinking or are much improved) [2]: 50%

CN(C)CCc1c[nH]c2ccc(O)cc12 [bufotenine]
plasma levels of the 5-MeO-DMT metabolite bufotenine [3]: undetectable
affinity for the 5-HT2A receptor (5-HT2A receptor): much higher affinity than 5-MeO-DMT
